Tested on: scalp SULT1A1 enzyme
Conditions: oral, 20 subjects

O=C([O-])O.[Na+] [sodium bicarbonate]
subjects in whom the scalp SULT1A1 enzyme was induced (dosages exceeding 1,000 mg q.d.): 18%
induction of the scalp SULT1A1 enzyme (dosages less than 500 mg q.d.): did induce

— patent US12377098B2, “Compositions and methods for the treatment of alopecia” (Follea International, priority 2023, dated 2025)
